{"source": "patent EP0732934B1", "about": "“LONG-ACTING INJECTION SUSPENSIONS OF AN LHRH ANALOGUE AND A PROCESS FOR THEIR PREPARATION” (Zentaris GmbH, priority 1993, dated 2005)", "key": {"[1]": {"details": "in vivo, po; cited from earlier work"}, "[2]": {"details": "compared to its embonic acid salt, subcutaneous injection in mice; cited from earlier work"}, "[3]": {"system": "testosterone plasma levels", "assay": "Duration of action in the animal: testosterone suppression after subcutaneous application", "type": "in vivo", "details": "male rats", "method": "Suspensions of the precipitates were applied subcutaneously to male rats in the dose 0.5 mg cetrorelix/kg body weight and determined after application as a measure of the effect of the peptide on testosterone plasma levels. The effect of the cetrorelix consists in reduction of the testosterone level. As a reference an injection suspension was tested as well, that prepared according to DE 4023134 A1 and which contained the peptide embonate in poly(lactic acid, glycolic acid) copolymers. The duration of action of a non-sustained release dosage form of cetrorelix was determined via examination of the aqueous solution of cetrorelix acetate."}}, "note": "Structures can show the parent of a compound that is named as a salt."}
{"compound": "CN(C)CCCN1c2ccccc2CCc2ccccc21", "note": "[imipramine HCl]", "values": [{"measurement": "difference to imipramine embonate", "setting": "[1]", "value": "no difference"}]}
{"compound": "CCc1nc(N)nc(N)c1-c1ccc(Cl)cc1", "note": "[pyrimethamine]", "values": [{"measurement": "pharmacokinetic behaviour, plasma level course and AUC", "setting": "[2]", "value": "no difference"}]}
{"compound": "Ac-DNal-DpCl-Phe-DPal-Ser-Tyr-DCit-Leu-Arg-Pro-D-Ala-NH2 [cetrorelix acetate]", "values": [{"measurement": "effect of testosterone suppression achieved after the application", "setting": "[3]; 0.5 mg cetrorelix/kg body weight subcutaneously", "value": 6, "unit": "h"}, {"measurement": "duration of testosterone suppression under 1 ng/ml", "setting": "[3]; 0.5 mg cetrorelix/kg subcutaneously, values for subgroups of animals (acetate: two animals, three further animals; embonate: one animal)", "value": "24 h and up to 48 h"}]}
